Reference: patent US12509446B2, “FYN and VEGFR2 kinase inhibitors” (ROTTAPHARM BIOTECH S.R.L., priority 2019, dated 2025)
Read-outs that look alike come from different tables or passages of the source.

Tests used:
[1] = target: VEGFR2 (Homo sapiens (Human), UniProt P35968); assay: In vitro VEGFR2 kinase activity assay (Eurofins Cerep); format: biochemical; settings: read-out: VEGFR2 KINASE INHIBITION IC50
Description: The VEGFR2 kinase inhibitory activity of representative examples of compounds of Formula (I) assays was evaluated in Eurofins Cerep (France). The concentration range of the inhibitors under investigation was from 10^−8 M up to 10^−5 M final concentration. Some compounds were re-tested in a concentration-range starting from 10^−9 M. The results are expressed as a percent of control activity (in the absence of test compound) and the IC50 values were determined by non-linear regression analysis of the inhibition/concentration curves generated with mean replicate values.

[2] = system: MMP13; assay: Gene expression in rat articular chondrocytes under IL-1β stimulation, MMP13; format: cell-based; parameters: key to MMP13 gene expression, no effect: ne: no effect; settings: 24 h
Description: (§1) For gene expression analysis, 10 days after plating, the medium was changed and substituted with DMEM GlutaMAX I 0.4% to synchronize the cells. The cells were then co-treated in DMEM GlutaMAX I 0.4% with different concentrations of the test compounds and […] at a final concentration of 2 ng/ml for 6 h and 24 h. The test compound concentrations used have been chosen on the basis of the toxicity data.
(§2) At the end of the incubation, the supernatant was discarded, the cell were washed with cold PBS1X and scraped with 200 μl of RNA lysis buffer 1X (Nucleic Acid Purification Lysis Solution, Applied Biosystems).
(§3) Total RNA was purified using ABI Prism™ 6100 Nucleic Acid PrepStation (Applied Biosystems) following manufacturer's instructions.
(§4) Total RNA was retrotranscribed using the High-Capacity cDNA Archive Kit (Applied Biosystems-Thermo Fisher Scientific) following manufacturer's instructions.
(§5) The specific probes and primers for RealTime PCR were from Applied Biosystems (Thermo Fisher Scientific) as Assays-on-Demand™, while the probe and primers for the endogenous control 18S was a PDAR (Pre-Developed TaqMan® Assay Reagents—Applied Biosystems-Thermo Fisher Scientific).
(§6) The assays were designed to amplify target cDNA without amplifying genomic DNA.
(§7) Gene expression analysis for IL-1β, IL-6 and ADAMTS-5 were performed at 6 h incubation, while the gene expression analysis for MMP3, MMP13 and COX2 were performed at 24 h incubation.
(§8) For each compound the maximal concentration tested was dependent on the toxicity results obtained on primary rat chondrocytes.
(§9) The data analysis, with the normalisation on the amplified values for the 18S was done following the specific instruction of Applied Biosystems for the relative quantification of gene expression.

[3] = system: COX2; assay: Gene expression in rat articular chondrocytes under IL-1β stimulation, COX2; format: cell-based; settings: for COX2 gene expression, percentage of inhibitory effect at the highest non toxic concentration: 24 h
[4] = target: Fyn (Homo sapiens (Human), UniProt P06241); assay: Z′-LYTE in vitro Fyn kinase activity assay; format: biochemical; settings: ATP 50 μM; read-out: FYN KINASE INHIBITION IC50
Description: The Fyn kinase inhibitory activity of representative examples of compounds of Formula (1) was evaluated by Z′-LYTE™ Kinase Assay Platform (Invitrogen). Compounds were evaluated towards active Fyn (full length active, molecular weight 87.1 kDa; Invitrogen). […] Samples representing the 0% inhibition (or total enzymatic activity) were in the presence of compound diluent (1% DMSO final in Reaction Buffer 50 mMHepes, 10 mM MgCl2, 1 mM EGTA, 0.01% Brij-35, pH 7.5). The kinase reaction was carried out in a total volume of 10 μl, for 60 minutes at 25° C. The 0% Phosphorylation (i.e. no ATP) and 100% Phosphorylation Assay Controls, included in each plate, allowed to calculate the percent phosphorylation achieved in the specific reaction well. Results are expressed as percentage of inhibition and the IC50 values were calculated by non-linear curve fitting using GraphPad™ Prism software (version 6 for Windows).

[5] = system: MMP3; assay: Gene expression in rat articular chondrocytes under IL-1β stimulation, MMP3; format: cell-based; parameters: key to MMP3 gene expression, no effect: ne: no effect; settings: for MMP3 gene expression, no effect: 24 h
Description: as §1, §2, §3, §4, §5, §6, §7, §8, §9

[6] = system: rat primary articular chondrocytes; assay: Toxicity analysis (MTT) in rat primary chondrocytes; settings: for First toxic concentration at 24 h: rat primary chondrocytes
[7] = system: NF-kB; assay: Gene reporter (GR) assay, NF-kB activation after TNFα in JB6 Cl 41-5a (P+) cells; format: cell-based, murine; settings: for IC50: TNFα 2 ng/ml, non toxic concentrations, read-out: Gene reporter (GR) inhibition IC50
Source text: To determine if the compounds of the invention were active also in a cellular model, a gene reporter assay was established in a cell line (JB6 Cl 41-5a (P+)) know to activate Fyn kinase via an inflammatory stimuli (TNFα). GR assay measures the activation of the nuclear transcription factor NF-kB, situated down-stream the Fyn activation pathway. Products active in this analysis has to penetrate in the cell and inhibit the activation pathway of NF-kB.
The murine epithelial cell line JB6 Cl 41-5a (P+) (ATCC® Cat. #CRL-2010) was stably transfected with the pGL4.32[luc2P/NFkB-RE/Hygro] vector (Promega). Clonal selection was achieved by limiting with 80 μg/ml Hygromycin B. The clones were tested for their response to TNFα stimulus.
JB6(P+) NFkB-RE-luc2P transfected cells were used for the analysis of NF-kB activity modulation, after TNFα stimulation, by Fyn-inhibitors.
Cells were pre-treated with the different compounds for 1 h and then stimulated with 2 ng/ml TNFα for 4 h. Each tested condition was analyzed in quadruplicate.
The luciferase analysis was performed with ONE-Glo™+ToxLuciferase Reporter and Cell Viability Assay kit (Promega).

[8] = system: ADAMTS-5; assay: Gene expression in rat articular chondrocytes under IL-1β stimulation, ADAMTS-5; format: cell-based; parameters: key to ADAMTS-5 gene expression, no effect: ne: no effect
Description: as §1, §2, §3, §4, §5, §6, §7, §8, §9

[9] = system: IL-1β; assay: Gene expression in rat articular chondrocytes under IL-1β stimulation, IL-1β; format: cell-based; settings: for IC50: Rattus norvegicus, Chondrocyte, 6 h incubation
Description: as §1, §2, §3, §4, §5, §6, §7, §8, §9

[10] = system: IL-6; assay: Gene expression in rat articular chondrocytes under IL-1β stimulation, IL-6; format: cell-based; settings: for IC50: Rattus norvegicus, Chondrocyte, 6 h incubation; for IL-6 gene expression, percentage of inhibitory effect at the highest non toxic concentration: 6 h
Description: as §1, §2, §3, §4, §5, §6, §7, §8, §9

[11] = system: bovine nasal septum cartilage; assay: Inhibition of cartilage degradation (GAG release) induced by IL-1α in a bovine in vitro model; format: cell-based; settings: Bos taurus; 3 μM; read-out: Bovine cartilage degradation induced by IL-1α, % inhibitory effect at max concentration
Description: Nasal septum cartilage was collected from an eight months-old male bovine in a local slaughterhouse.
Tissue was sprayed with ethanol 70% and immediately put in sterile PBS with Antibiotic-Antimycotic stabilized solution (PBS-AASS). It was cut in order to obtain small punches (diameter 2 mm, 1 mm-thick). washed with sterile PBS-AASS, the slices were transferred in a 96X well plate (one piece per well) in DMEM 10%+AASS. 48 h later the cartilage was stimulated in white DMEM+0.1% BSA+AASS with IL-1α […] in the absence or presence of the studied compounds.
The compounds concentration used in this analysis was chosen depending on the toxicity results obtained in rat primary chondrocytes at 48 h of incubation.
After 48 h stimulation, the culture medium was collected and stored at −80° C. The cartilage punches were digested with papain at 65° C. for 2 h in phosphate buffer (0.05M pH 6.5 with 2 mM N-acetil-L-cisteine and 2 mM EDTA).
The glycosaminoglycan (GAG) determination was done by a colorimetric assay with 1,9 dimethyl methylene blue (DMB).
Digested cartilage samples were diluted in PBS-BSA 1%. To 100 μl of diluted samples or standard we added 100 μl DMB 2X. After 5-20 min incubation the samples were read at 590 nm (Titertek Multiscan Plus).
The cartilage degradation induced by IL-1α was expressed as: GAG (medium)/total GAG (medium+cartilage)×100

[12] = Rattus norvegicus, Chondrocyte, 24 h incubation

Sequence of VEGFR2 (P35968 20-1356): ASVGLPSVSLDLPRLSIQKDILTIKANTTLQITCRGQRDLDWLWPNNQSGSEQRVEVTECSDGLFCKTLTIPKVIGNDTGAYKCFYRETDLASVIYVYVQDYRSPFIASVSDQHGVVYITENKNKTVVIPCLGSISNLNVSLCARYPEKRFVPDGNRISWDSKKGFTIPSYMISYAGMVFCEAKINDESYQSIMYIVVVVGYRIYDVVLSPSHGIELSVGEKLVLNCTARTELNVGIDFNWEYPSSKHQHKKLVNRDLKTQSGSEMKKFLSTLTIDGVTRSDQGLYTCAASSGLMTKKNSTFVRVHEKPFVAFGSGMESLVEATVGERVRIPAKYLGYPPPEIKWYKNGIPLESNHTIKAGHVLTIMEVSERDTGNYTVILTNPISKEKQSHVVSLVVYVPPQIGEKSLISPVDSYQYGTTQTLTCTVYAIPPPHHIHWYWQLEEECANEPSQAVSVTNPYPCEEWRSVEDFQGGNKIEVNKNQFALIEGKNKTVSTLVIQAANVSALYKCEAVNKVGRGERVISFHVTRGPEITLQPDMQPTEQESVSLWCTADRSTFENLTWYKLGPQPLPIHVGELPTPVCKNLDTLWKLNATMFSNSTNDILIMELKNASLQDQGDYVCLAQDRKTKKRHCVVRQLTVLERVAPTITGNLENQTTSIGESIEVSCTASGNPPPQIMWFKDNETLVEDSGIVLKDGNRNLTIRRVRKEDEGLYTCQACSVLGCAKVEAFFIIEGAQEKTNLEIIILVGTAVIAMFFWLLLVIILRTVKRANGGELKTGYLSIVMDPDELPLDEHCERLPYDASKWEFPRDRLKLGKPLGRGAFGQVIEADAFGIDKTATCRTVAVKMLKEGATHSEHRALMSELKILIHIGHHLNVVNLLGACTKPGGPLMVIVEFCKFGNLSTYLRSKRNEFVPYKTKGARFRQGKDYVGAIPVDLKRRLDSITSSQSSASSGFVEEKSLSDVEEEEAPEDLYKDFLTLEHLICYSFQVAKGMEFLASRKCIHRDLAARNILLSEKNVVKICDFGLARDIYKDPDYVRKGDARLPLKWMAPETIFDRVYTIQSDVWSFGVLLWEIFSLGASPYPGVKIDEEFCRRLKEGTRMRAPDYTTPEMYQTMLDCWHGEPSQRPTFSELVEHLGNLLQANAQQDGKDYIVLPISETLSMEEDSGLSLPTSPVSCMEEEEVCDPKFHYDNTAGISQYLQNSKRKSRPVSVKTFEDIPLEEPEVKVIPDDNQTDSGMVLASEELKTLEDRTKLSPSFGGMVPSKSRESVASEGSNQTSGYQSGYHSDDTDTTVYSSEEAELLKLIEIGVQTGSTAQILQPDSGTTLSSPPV
Sequence of Fyn (P06241 whole entry): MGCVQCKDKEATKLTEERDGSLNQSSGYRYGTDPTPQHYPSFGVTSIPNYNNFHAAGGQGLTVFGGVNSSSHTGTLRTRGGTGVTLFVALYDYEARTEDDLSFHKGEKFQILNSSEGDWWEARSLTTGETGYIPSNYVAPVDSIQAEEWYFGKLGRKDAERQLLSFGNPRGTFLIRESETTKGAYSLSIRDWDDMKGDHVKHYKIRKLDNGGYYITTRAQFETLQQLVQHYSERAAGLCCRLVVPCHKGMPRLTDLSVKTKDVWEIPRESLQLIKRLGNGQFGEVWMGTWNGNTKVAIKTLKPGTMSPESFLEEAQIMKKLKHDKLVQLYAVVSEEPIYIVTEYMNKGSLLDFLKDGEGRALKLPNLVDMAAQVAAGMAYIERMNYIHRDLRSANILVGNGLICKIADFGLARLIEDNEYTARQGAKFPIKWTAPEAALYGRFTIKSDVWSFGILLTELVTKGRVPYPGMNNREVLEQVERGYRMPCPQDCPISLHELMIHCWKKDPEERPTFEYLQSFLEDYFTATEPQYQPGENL

Cc1ccc(NC(=O)c2cc(C(F)(F)F)ccc2F)cc1CCc1cc(Nc2cnccn2)[nH]n1 [Compound 7, 2-fluoro-N-(4-methyl-3-(2-(5-(pyrazin-2-ylamino)-1H-pyrazol-3-yl)ethyl)phenyl)-5-(trifluoromethyl)benzamide]
IC50 [1]: < 10 nM | MMP13 gene expression, percentage of inhibitory effect at the highest non toxic concentration ([2]; 1 μM): 1 μM 38% | COX2 gene expression, percentage of inhibitory effect at the highest non toxic concentration ([3]; 1 μM): 1 μM 41% | IC50 [4]: 63 nM | MMP3 gene expression, no effect [5]: ne | First toxic concentration at 24 h [6]: 3 µM | IC50 ([7]; Mus musculus, JB6 Cl 41-5a): 1160 nM | ADAMTS-5 gene expression, percentage of inhibitory effect at the highest non toxic concentration ([8]; 1 μM, 6 h): 1 μM 81% | IC50 [9]: 100 nM | IC50 [10]: 200 nM

CC(C)Cc1ccc(C(=O)Nc2ccc(F)c(CCc3cc(NC(=O)c4ncccn4)[nH]n3)c2)cn1 [Compound 9, N-(3-(2-fluoro-5-(6-isobutylnicotinamido)phenethyl)-1H-pyrazol-5-yl)pyrimidine-2-carboxamide]
IC50 [1]: < 10 nM | IC50 [4]: 16 nM | inhibition at 10 µM ([7]; Mus musculus, JB6 Cl 41-5a, 10 μM, read-out: Gene reporter (GR) inhibition % effect at max concentration): 47%

Cc1ccc(NC(=O)c2cccc(S(C)(=O)=O)c2)cc1CCc1cc(Nc2cnccn2)[nH]n1 [Compound 1, N-(4-methyl-3-(2-(5-(pyrazin-2-ylamino)-1H-pyrazol-3-yl)ethyl)phenyl)-3-(methylsulfonyl)benzamide]
MMP13 gene expression, percentage of inhibitory effect at the highest non toxic concentration ([2]; 10 μM): 10 μM 38% | IC50 [3, 12]: 3100 nM | inhibition at 3 µM [11]: 88% | MMP3 gene expression, no effect [5]: ne | First toxic concentration at 48 h in rat primary chondrocytes ([6]; 48 h): 10 µM | First toxic concentration at 24 h [6]: >10 µM | IC50 ([7]; Mus musculus, JB6 Cl 41-5a): 5080 nM | ADAMTS-5 gene expression, percentage of inhibitory effect at the highest non toxic concentration ([8]; 10 μM, 6 h): 10 μM 38% | IC50 [9]: 2100 nM | IC50 [10]: 1600 nM

Cc1ccc(NC(=O)c2cc(C(C)(C)C#N)ccn2)cc1CCc1cc(Nc2cnccn2)[nH]n1 [Compound 41, 4-(2-cyanopropan-2-yl)-N-(4-methyl-3-(2-(5-(pyrazin-2-ylamino)-1H-pyrazol-3-yl)ethyl)phenyl)picolinamide]
IC50 [1]: < 10 nM | IC50 [4]: 8 nM | IC50 ([7]; Mus musculus, JB6 Cl 41-5a): 327 nM

Cc1nc(C#N)cc(Nc2cc(CCc3cc(NC(=O)c4ccc(CN(C)C)c(C(F)(F)F)c4)ccc3F)n[nH]2)n1 [Compound 39, N-(3-(2-(5-((6-cyano-2-methylpyrimidin-4-yl)amino)-1H-pyrazol-3-yl)ethyl)-4-fluorophenyl)-4-((dimethylamino)methyl)-3-(trifluoromethyl)benzamide]
IC50 [1]: 11 nM | MMP13 gene expression, percentage of inhibitory effect at the highest non toxic concentration ([2]; 3 μM): 3 μM 90% | COX2 gene expression, percentage of inhibitory effect at the highest non toxic concentration ([3]; 3 μM): 3 μM 99% | IC50 [4]: 1 nM | IC50 [5, 12]: 1200 nM | First toxic concentration at 24 h [6]: 10 µM | IC50 ([7]; Mus musculus, JB6 Cl 41-5a): 1060 nM | IC50 ([8]; Rattus norvegicus, Chondrocyte, 6 h incubation): 500 nM | IL-1β gene expression, percentage of inhibitory effect at the highest non toxic concentration ([9]; 3 μM, 6 h): 3 μM 100% | IL-6 gene expression, percentage of inhibitory effect at the highest non toxic concentration ([10]; 3 μM): 3 μM 100%

Cc1nc(Nc2cc(CCc3ccc(F)c(NC(=O)c4cccc(C(F)(F)F)c4)c3)n[nH]2)cc(N2CCOCC2)n1 [Compound 43, N-(2-fluoro-5-(2-(5-((2-methyl-6-morpholinopyrimidin-4-yl)amino)-1H-pyrazol-3-yl)ethyl)phenyl)-3-(trifluoromethyl)benzamide]
IC50 [1]: 10 nM | IC50 [4]: 19 nM | IC50 ([7]; Mus musculus, JB6 Cl 41-5a): 2440 nM

O=C(Nc1ccc(Cl)c(CCc2cc(Nc3cnccn3)[nH]n2)c1)c1cccc(C(F)(F)F)c1 [Compound 16, N-(4-chloro-3-(2-(5-(pyrazin-2-ylamino)-1H-pyrazol-3-yl)ethyl)phenyl)-3-(trifluoromethyl)benzamide]
IC50 [1]: < 10 nM | IC50 [4]: 24 nM | IC50 ([7]; Mus musculus, JB6 Cl 41-5a): 321 nM

Cc1ccc(NC(=O)c2cc(S(=O)(=O)C3CC3)ccn2)cc1CCc1cc(Nc2cnccn2)[nH]n1 [Compound 8, 4-(cyclopropylsulfonyl)-N-(4-methyl-3-(2-(5-(pyrazin-2-ylamino)-1H-pyrazol-3-yl)ethyl)phenyl)picolinamide]
IC50 [1]: < 10 nM | MMP13 gene expression, no effect [2]: ne | COX2 gene expression, percentage of inhibitory effect at the highest non toxic concentration ([3]; 1 μM): 1 μM 63% | IC50 [4]: 20 nM | MMP3 gene expression, no effect [5]: ne | First toxic concentration at 24 h [6]: 3 µM | IC50 ([7]; Mus musculus, JB6 Cl 41-5a): < 250 nM | IC50 [7]: 233 nM | ADAMTS-5 gene expression, no effect ([8]; 6 h): ne | IC50 [9]: 300 nM | IL-6 gene expression, percentage of inhibitory effect at the highest non toxic concentration ([10]; 1 μM): 1 μM 99%
